Measurements: ChEMBL document CHEMBL1201861, “Genomics of Drug Sensitity in Cancer screening data, Wellcome Trust Sanger Institute”

What was measured:
Assay in all cases: cells
SK-NEP-1 = format: functional, cell-based; details: Homo sapiens;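 further: growth inhibition of human SK-NEP-1 cells, read out by a cell viability assay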
Description: SANGER: Inhibition of human SK-NEP-1 cell growth in a cell viability assay.

KLE = format: functional, cell-based, Homo sapiens; details: Homo sapiens, KLE;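 further: growth inhibition of human KLE cells, read out with a cell viability assay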
Description: SANGER: Inhibition of human KLE cell growth in a cell viability assay.

NCI-H520 = format: functional, cell-based, Homo sapiens; details: Homo sapiens, NCI-H520;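 further: growth inhibition of NCI-H520 cells, measured by a cell viability assay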
Description: SANGER: Inhibition of human NCI-H520 cell growth in a cell viability assay.

SNU-5 = format: functional, cell-based; details: Homo sapiens;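 further: cell viability readout used to measure growth inhibition in human NCI-SNU-5 cells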
Description: SANGER: Inhibition of human NCI-SNU-5 cell growth in a cell viability assay.

EFO-27 = format: functional, cell-based, Homo sapiens; details: Homo sapiens, EFO-27;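 further: growth inhibition of EFO-27 cells, read out with a cell viability assay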
Description: SANGER: Inhibition of human EFO-27 cell growth in a cell viability assay.

HCC1569 = format: functional, cell-based, Homo sapiens; details: Homo sapiens, HCC1569;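 further: growth inhibition of human HCC1569 cells, read out with a cell viability assay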
Description: SANGER: Inhibition of human HCC1569 cell growth in a cell viability assay.

MS-1 = format: functional, cell-based; details: Homo sapiens;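 further: growth inhibition of MS-1 cells, read out by cell viability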
Description: SANGER: Inhibition of human MS-1 cell growth in a cell viability assay.

DK-MG = format: functional, cell-based, Homo sapiens; details: Homo sapiens, DK-MG;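 further: growth inhibition of DK-MG cells, read out with a cell viability assay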
Description: SANGER: Inhibition of human DK-MG cell growth in a cell viability assay.

BEN = format: functional, cell-based, Homo sapiens; details: Homo sapiens, BEN;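 further: growth inhibition of the BEN cell line, read out with a cell viability assay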
Description: SANGER: Inhibition of human BEN cell growth in a cell viability assay.

COLO-800 = format: functional, cell-based, Homo sapiens; details: Homo sapiens, COLO-800;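 further: growth inhibition of COLO-800 cells, read out with a cell viability assay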
Description: SANGER: Inhibition of human COLO-800 cell growth in a cell viability assay.

SNB-75 = format: functional, cell-based, Homo sapiens; details: Homo sapiens, SNB-75;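 further: cell viability assay measuring growth inhibition of human SNB-75 cells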
Description: SANGER: Inhibition of human SNB75 cell growth in a cell viability assay.

HAL-01 = format: functional, cell-based; details: Homo sapiens;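 further: growth inhibition of human HAL-01 cells, read out with a cell viability assay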
Description: SANGER: Inhibition of human HAL-01 cell growth in a cell viability assay.

ALL-PO = format: functional, cell-based; details: Homo sapiens;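 further: growth inhibition of ALL-PO cells, read out by a cell viability assay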
Description: SANGER: Inhibition of human ALL-PO cell growth in a cell viability assay.

U-266 = format: functional, cell-based; details: Homo sapiens
Description: SANGER: Inhibition of human U-266 cell growth in a cell viability assay.

KARPAS-45 = format: functional, cell-based; details: Homo sapiens;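 further: inhibition of cell line growth, read out through a viability assay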
Description: SANGER: Inhibition of human KARPAS-45 cell growth in a cell viability assay.

NCI-H596 = format: functional, cell-based, Homo sapiens; details: Homo sapiens, NCI-H596;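 further: growth inhibition of NCI-H596 cells, read out with a cell viability assay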
Description: SANGER: Inhibition of human NCI-H596 cell growth in a cell viability assay.

NCI-H2228 = format: functional, cell-based, Homo sapiens; details: Homo sapiens, NCI-H2228;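 further: growth inhibition of human NCI-H2228 cells, read out by a cell viability assay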
Description: SANGER: Inhibition of human NCI-H2228 cell growth in a cell viability assay.

RO82-W-1 = format: functional, cell-based, Homo sapiens; details: Homo sapiens, RO82-W-1;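 further: growth inhibition of human RO82-W-1 cells, measured with a cell viability assay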
Description: SANGER: Inhibition of human RO82-W-1 cell growth in a cell viability assay.

OVCAR-3 = format: functional, cell-based, Homo sapiens; details: Homo sapiens, OVCAR-3;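 further: growth inhibition of human OVCAR-3 cells, determined by a cell viability assay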
Description: SANGER: Inhibition of human OVCAR-3 cell growth in a cell viability assay.

OE33 = format: functional, cell-based, Homo sapiens; details: Homo sapiens, OE33;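 further: growth inhibition of human OE33 cells, measured by a cell viability assay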
Description: SANGER: Inhibition of human OE33 cell growth in a cell viability assay.

SN12C = format: functional, cell-based, Homo sapiens; details: Homo sapiens, SN12C;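 further: growth inhibition of human SN12C cells, measured by a cell viability assay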
Description: SANGER: Inhibition of human SN12C cell growth in a cell viability assay.

UO-31 = format: functional, cell-based; details: Homo sapiens;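 further: cell viability assay measuring inhibition of cell growth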
Description: SANGER: Inhibition of human U031 cell growth in a cell viability assay.

LB771-HNC = format: functional, cell-based, Homo sapiens; details: Homo sapiens, LB771-HNC;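 further: growth inhibition of LB771-HNC human cells, read out with a cell viability assay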
HCT-116 = format: functional, cell-based, Homo sapiens; details: Homo sapiens, HCT-116
Description: SANGER: Inhibition of human HCT-116 cell growth in a cell viability assay.

K562 = format: functional, cell-based; details: Homo sapiens
Description: SANGER: Inhibition of human K-562 cell growth in a cell viability assay.

NY = format: functional, cell-based, Homo sapiens; details: Homo sapiens, NY
Description: SANGER: Inhibition of human NY cell growth in a cell viability assay.

CAL-120 = format: functional, cell-based, Homo sapiens; details: Homo sapiens, CAL-120;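 further: cell growth inhibition, read out as cell viability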
Description: SANGER: Inhibition of human CAL-120 cell growth in a cell viability assay.

CAL-39 = format: functional, cell-based, Homo sapiens; details: Homo sapiens, CAL-39;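 further: cell viability assay measuring growth inhibition of CAL-39 cells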
Description: SANGER: Inhibition of human CAL-39 cell growth in a cell viability assay.

NTERA-2-cl-D1 = format: functional, cell-based, Homo sapiens; details: Homo sapiens, NTERA-2-cl-D1;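 further: inhibition of cell growth, measured with a cell viability assay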
Description: SANGER: Inhibition of human NTERA-S-cl-D1 cell growth in a cell viability assay.

IGR-1 = format: functional, cell-based, Homo sapiens; details: Homo sapiens, IGR-1;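 further: growth inhibition of human IGR-1 cells, read out with a cell viability assay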
Description: SANGER: Inhibition of human IGR-1 cell growth in a cell viability assay.

MN-60 = format: functional, cell-based; details: Homo sapiens;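 further: growth inhibition of the MN-60 cell line, determined with a cell viability assay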
Description: SANGER: Inhibition of human MN-60 cell growth in a cell viability assay.

RPMI-8866 = format: functional, cell-based; details: Homo sapiens
Description: SANGER: Inhibition of human RPMI-8866 cell growth in a cell viability assay.

TK-10 = format: functional, cell-based, Homo sapiens; details: Homo sapiens, TK-10;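 further: growth inhibition of TK-10 cells, read out in a cell viability assay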
Description: SANGER: Inhibition of human TK10 cell growth in a cell viability assay.

NCI-H810 = format: functional, cell-based, Homo sapiens; details: Homo sapiens, NCI-H810;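 further: IC50 reflects inhibition of cancer cell line growth, read out with a cell viability assay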
Description: SANGER: Inhibition of human NCI-H810 cell growth in a cell viability assay.

KP-4 = format: functional, cell-based, Homo sapiens; details: Homo sapiens, KP-4; read-out: IC50;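 further: human KP-4 cells, with growth inhibition read out through a cell viability assay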
Description: SANGER: Inhibition of human KP-4 cell growth in a cell viability assay.

VMRC-RCZ = format: functional, cell-based; details: Homo sapiens;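 further: growth inhibition measured with a cell viability assay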
Description: SANGER: Inhibition of human VMRC-RCZ cell growth in a cell viability assay.

CAS-1 = format: functional, cell-based, Homo sapiens; details: Homo sapiens, CAS-1;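 further: growth inhibition of CAS-1 cells, measured with a cell viability assay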
GOTO = format: functional, cell-based, Homo sapiens; details: Homo sapiens, GOTO;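 further: growth inhibition of GOTO cells, read out by a cell viability assay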
Description: SANGER: Inhibition of human GOTO cell growth in a cell viability assay.

COLO-678 = format: functional, cell-based, Homo sapiens; details: Homo sapiens, COLO-678
Description: SANGER: Inhibition of human COLO-678 cell growth in a cell viability assay.

IST-SL1 = format: functional, cell-based, Homo sapiens; details: Homo sapiens, IST-SL1;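 further: growth inhibition of human IST-SL1 cells, read out with a cell viability assay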
Description: SANGER: Inhibition of human IST-SL1 cell growth in a cell viability assay.

LoVo = format: functional, cell-based; details: Homo sapiens;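 further: growth inhibition of human LoVo cells, read out with a cell viability assay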
Description: SANGER: Inhibition of human LoVo cell growth in a cell viability assay.

IGROV-1 = format: functional, cell-based, Homo sapiens; details: Homo sapiens, IGROV-1;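 further: reduction of IGROV-1 cell growth, read out with a viability assay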
Description: SANGER: Inhibition of human IGROV-1 cell growth in a cell viability assay.

AGS = format: functional, cell-based, Homo sapiens; details: Homo sapiens, AGS;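 further: growth inhibition of AGS cells, determined with a cell viability assay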
Description: SANGER: Inhibition of human AGS cell growth in a cell viability assay.

LU-134-A = format: functional, cell-based; details: Homo sapiens
Description: SANGER: Inhibition of human LU-134-A cell growth in a cell viability assay.

SCC-9 = format: functional, cell-based, Homo sapiens; details: Homo sapiens, SCC-9;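 further: Read-out is a cell viability assay, with values giving inhibition of cell growth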
LOX IMVI = format: functional, cell-based; details: Homo sapiens
Description: SANGER: Inhibition of human LOXIMVI cell growth in a cell viability assay.

HGC-27 = format: functional, cell-based, Homo sapiens; details: Homo sapiens, HGC-27;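 further: growth inhibition of human HGC-27 cells, read out in a cell viability assay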
Description: SANGER: Inhibition of human HGC-27 cell growth in a cell viability assay.

MHH-PREB-1 = format: functional, cell-based; details: Homo sapiens;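 further: cell viability assay measuring inhibition of proliferation of human MHH-PREB-1 cells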
Description: SANGER: Inhibition of human MHH-PREB-1 cell growth in a cell viability assay.

NCI-H1648 = format: functional, cell-based, Homo sapiens; details: Homo sapiens, NCI-H1648;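 further: cell viability assay measuring inhibition of NCI-H1648 cell growth, from the Sanger screening data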
Description: SANGER: Inhibition of human NCI-H1648 cell growth in a cell viability assay.

MCF7 = format: functional, cell-based, Homo sapiens; details: Homo sapiens, MCF7;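 further: growth inhibition of human MCF7 cells, read out with a cell viability assay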
Description: SANGER: Inhibition of human MCF7 cell growth in a cell viability assay.

A704 = format: functional, cell-based, Homo sapiens; details: Homo sapiens, A704;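 further: growth inhibition of human A704 cells, read out with a cell viability assay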
Description: SANGER: Inhibition of human A704 cell growth in a cell viability assay.

NCI-H1770 = format: functional, cell-based; details: Homo sapiens;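 further: growth inhibition of NCI-H1770 cells determined with a viability readout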
Description: SANGER: Inhibition of human NCI-H1770 cell growth in a cell viability assay.

Cc1ccc(Nc2nccc(N(C)c3ccc4c(C)n(C)nc4c3)n2)cc1S(N)(=O)=O [PAZOPANIB]
IC50 (SK-NEP-1): > 8 µM | IC50 (KLE): > 8 µM | IC50 (NCI-H520): 5.73 µM | IC50 (SNU-5): > 8 µM | IC50 (EFO-27): > 8 µM | IC50 (HCC1569): > 8 µM | IC50 (MS-1): > 8 µM | IC50 (DK-MG): 5.72 µM | IC50 (BEN): > 8 µM | IC50 (COLO-800): > 8 µM | IC50 (SNB-75): 6.57 µM | IC50 (HAL-01): > 8 µM | IC50 (ALL-PO): > 8 µM | IC50 (U-266): > 8 µM | IC50 (KARPAS-45): > 8 µM | IC50 (NCI-H596): > 8 µM | IC50 (NCI-H2228): > 8 µM | IC50 (RO82-W-1): > 8 µM | IC50 (OVCAR-3): > 8 µM | IC50 (OE33): > 8 µM | IC50 (SN12C): > 8 µM | IC50 (UO-31): > 8 µM | IC50 (LB771-HNC): > 8 µM | IC50 (HCT-116): > 8 µM | IC50 (K562): > 8 µM | IC50 (NY): 1.85 µM | IC50 (CAL-120): > 8 µM | IC50 (CAL-39): > 8 µM | IC50 (NTERA-2-cl-D1): > 8 µM | IC50 (IGR-1): > 8 µM | IC50 (MN-60): > 8 µM | IC50 (RPMI-8866): > 8 µM | IC50 (TK-10): > 8 µM | IC50 (NCI-H810): 6.31 µM | IC50 (KP-4): > 8 µM | IC50 (VMRC-RCZ): > 8 µM | IC50 (CAS-1): 7.76 µM | IC50 (GOTO): > 8 µM | IC50 (COLO-678): > 8 µM | IC50 (IST-SL1): > 8 µM | IC50 (LoVo): > 8 µM | IC50 (IGROV-1): 3.25 µM | IC50 (AGS): > 8 µM | IC50 (LU-134-A): > 8 µM | IC50 (SCC-9): > 8 µM | IC50 (LOX IMVI): > 8 µM | IC50 (HGC-27): 6.2 µM | IC50 (MHH-PREB-1): > 8 µM | IC50 (NCI-H1648): > 8 µM | IC50 (MCF7): > 8 µM | IC50 (A704): 1.6 µM | IC50 (NCI-H1770): > 8 µM

Cn1cncc1[C@@](N)(c1ccc(Cl)cc1)c1ccc2c(c1)c(-c1cccc(Cl)c1)cc(=O)n2C [TIPIFARNIB]
IC50 (SK-NEP-1): 9.94 µM | IC50 (KLE): 8.91 µM | IC50 (NCI-H520): 2.22 µM | IC50 (SNU-5): > 16 µM | IC50 (EFO-27): 0.714 µM | IC50 (HCC1569): 2.58 µM | IC50 (MS-1): > 16 µM | IC50 (DK-MG): > 16 µM | IC50 (BEN): 5.4 µM | IC50 (COLO-800): > 16 µM | IC50 (SNB-75): 9.02 µM | IC50 (HAL-01): 6.74 µM | IC50 (ALL-PO): 0.555 µM | IC50 (U-266): > 16 µM | IC50 (KARPAS-45): 12.9 µM | IC50 (NCI-H596): 1.82 µM | IC50 (NCI-H2228): 4.98 µM | IC50 (RO82-W-1): > 16 µM | IC50 (OVCAR-3): > 16 µM | IC50 (OE33): 12.6 µM | IC50 (SN12C): 13.2 µM | IC50 (UO-31): 10.7 µM | IC50 (LB771-HNC): 1.13 µM | IC50 (HCT-116): 4.88 µM | IC50 (K562): 4.82 µM | IC50 (NY): 1.93 µM | IC50 (CAL-120): > 16 µM | IC50 (CAL-39): 0.962 µM | IC50 (NTERA-2-cl-D1): 0.237 µM | IC50 (IGR-1): 1.62 µM | IC50 (MN-60): > 16 µM | IC50 (RPMI-8866): > 16 µM | IC50 (TK-10): 5.68 µM | IC50 (NCI-H810): 1.63 µM | IC50 (KP-4): 13.6 µM | IC50 (VMRC-RCZ): 3.18 µM | IC50 (CAS-1): > 16 µM | IC50 (GOTO): > 16 µM | IC50 (COLO-678): > 16 µM | IC50 (IST-SL1): > 16 µM | IC50 (LoVo): 0.241 µM | IC50 (IGROV-1): 0.208 µM | IC50 (AGS): 4.53 µM | IC50 (LU-134-A): > 16 µM | IC50 (SCC-9): > 16 µM | IC50 (LOX IMVI): > 16 µM | IC50 (HGC-27): 1.32 µM | IC50 (MHH-PREB-1): 3.3 µM | IC50 (NCI-H1648): 2.56 µM | IC50 (MCF7): 0.166 µM | IC50 (A704): > 16 µM | IC50 (NCI-H1770): > 16 µM
